# Data published in patent US5622948A, “Pyrrole pyridazine and pyridazinone anti-inflammatory agents” (Syntex (U.S.A.) Inc., priority 1994, dated 1997).
# “And” between values parts separate entries of the source, which are not always exact repeats. Equal values may be shown once. Read-outs that look alike come from different tables or passages of the source.
# Experiments:
# COX II [1] = target: T1, COX II (Homo sapiens, UniProt P35354); assay: PGE2 production in human adherent monocytes stimulated with LPS; type: cell-based; conditions: EIA, read-out: COX II IC50, inhibition of PGE2 production
# T1 sequence (P35354 18-604): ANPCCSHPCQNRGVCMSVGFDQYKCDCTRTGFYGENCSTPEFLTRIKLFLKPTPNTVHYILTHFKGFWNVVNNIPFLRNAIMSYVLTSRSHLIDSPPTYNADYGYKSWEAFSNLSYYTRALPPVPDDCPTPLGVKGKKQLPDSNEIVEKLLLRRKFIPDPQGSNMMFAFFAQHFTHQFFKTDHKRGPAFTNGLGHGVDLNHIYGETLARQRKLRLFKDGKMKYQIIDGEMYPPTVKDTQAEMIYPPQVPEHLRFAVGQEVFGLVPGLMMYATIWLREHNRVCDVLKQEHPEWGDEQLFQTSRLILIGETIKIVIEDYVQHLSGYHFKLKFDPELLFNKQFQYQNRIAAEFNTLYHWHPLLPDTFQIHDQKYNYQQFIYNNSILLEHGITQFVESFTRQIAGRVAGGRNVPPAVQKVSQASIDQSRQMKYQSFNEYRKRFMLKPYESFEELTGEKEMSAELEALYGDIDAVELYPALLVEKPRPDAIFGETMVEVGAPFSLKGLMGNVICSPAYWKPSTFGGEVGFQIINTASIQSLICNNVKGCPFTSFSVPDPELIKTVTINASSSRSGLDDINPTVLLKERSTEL
# Procedure: (§1) A summary of activities of Compound (16) against COX I and COX II in cell-free enzyme preparations and whole cells is presented in Table 1. The following abbreviations are used: AA is arachidonic acid, IL-1 is interleukin 1, PMA is phorbol myristate acetate, A23187 is a calcium ionophore (Sigma), BSA is bovine serum albumin and LPS is a lipopolysaccharide (Sigma).
# Human adherent monocytes
# (§2) 30 min incubation with Compound (16)
# 18 hr stimulation with LPS
# a) 10 min activation, A23187 + PMA
# washing, transfer to fresh media
# (§3) b) 30 min activation, A23187 + PMA
# c) 10 min activation, 20 μM AA
# (§4) d) 30 min activation, 20 μM AA
# (§5) EIA determination of PGE2
# COX I [2] = target: T2, COX I (Homo sapiens, UniProt P23219); assay: thromboxane B2 production in washed human platelets; type: cell-based; design: A 2 Kb fragment containing the coding region of COX I; made in house; host or cells: Sf9 insect cells, baculovirus (cDNA from Oxford Biomedical Research); conditions: EIA, read-out: COX I IC50, inhibition of thromboxane B2 production
# Procedure: as §1, §2
# b) 10 min activation, 20 μM AA
# (§6) EIA determination of TxB2
# COX I [3] = assay: PGE2 production in freshly isolated human monocytes; type: cell-based; conditions: EIA, cells may be expressing COX II constitutively, read-out: COX I IC50, inhibition of PGE2 production
# Procedure: as §1
# Human monocytes 30 min incubation with Compound (16)
# freshly isolated a) 10 min activation, A23187 + PMA
# These cells may be expressing COX II
# as §3
# constitutively c) 10 min activation, 20 μM AA
# as §4, §5
# COX I [4] = target: T2, COX I; assay: radiometric assay, COX I inhibition (human recombinant, baculovirus expressed, partially purified); type: biochemical; design: A 2 Kb fragment containing the coding region of COX I; made in house; host or cells: Sf9 insect cells, baculovirus (cDNA from Oxford Biomedical Research); conditions: very low substrate concentration
# COX I [5] = target: T3, COX I (Rattus norvegicus, UniProt Q63921); assay: TxB2 production in rat whole blood activated with A23187; type: cell-based; conditions: 15 min incubation; 30 min activation with A23187; EIA determination of TxB2; read-out: COX I IC50, inhibition of TxB2 production
# T3 construct: Rat whole blood; from tissue; host or cells: rat whole blood
# T3 sequence (Q63921 27-602): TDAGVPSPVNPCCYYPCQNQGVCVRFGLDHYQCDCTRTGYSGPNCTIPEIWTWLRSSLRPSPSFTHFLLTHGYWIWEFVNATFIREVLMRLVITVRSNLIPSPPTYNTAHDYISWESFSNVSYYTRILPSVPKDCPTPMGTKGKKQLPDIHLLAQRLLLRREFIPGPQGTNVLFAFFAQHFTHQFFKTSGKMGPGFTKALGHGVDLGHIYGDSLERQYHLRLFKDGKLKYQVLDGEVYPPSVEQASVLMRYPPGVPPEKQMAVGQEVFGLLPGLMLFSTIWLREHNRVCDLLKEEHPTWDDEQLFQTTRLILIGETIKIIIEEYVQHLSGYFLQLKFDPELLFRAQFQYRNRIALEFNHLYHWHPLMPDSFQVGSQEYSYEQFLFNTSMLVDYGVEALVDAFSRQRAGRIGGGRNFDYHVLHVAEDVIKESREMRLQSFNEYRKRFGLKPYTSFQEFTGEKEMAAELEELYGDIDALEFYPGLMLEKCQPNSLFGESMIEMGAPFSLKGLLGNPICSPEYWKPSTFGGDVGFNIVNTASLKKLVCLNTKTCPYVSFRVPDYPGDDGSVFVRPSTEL
# Procedure: as §1
# Rat whole blood 15 min incubation with Compound (16)
# as §6
# COX II [6] = target: T1, COX II; assay: TxB2 production in human whole blood activated with lipopolysaccharide (COX II); type: cell-based; conditions: 5 hr incubation with compound and 10 μg/ml LPS; RIA determination of TxB2; read-out: COX II IC50, inhibition of TxB2 production
# [7] = two week range finding toxicity study in rats; type: in vivo, rat
# Procedure: A two week range finding study in rats was carried out at daily doses of 10, 30, 100 and 300 mg/kg of Compound (16).
# [8] = Pharmacokinetics in rat and monkey; type: in vivo
# Excerpt: The pharmacokinetics of Compound (16) was studied in rat and monkey after intravenous and oral administration in solution (ethanol/polyethylene glycol/water, 1/5/4) or SSV.
# [9] = 30 min incubation; a) 10 min activation, A23187 + PMA
# [10] = 30 min incubation; b) 30 min activation, A23187 + PMA
# [11] = 30 min incubation; c) 10 min activation, 20 μM AA
# [12] = 30 min incubation; d) 30 min activation, 20 μM AA
# [13] = 10, 30, 100 and 300 mg/kg daily, two weeks
# T2 sequence (P23219 24-599): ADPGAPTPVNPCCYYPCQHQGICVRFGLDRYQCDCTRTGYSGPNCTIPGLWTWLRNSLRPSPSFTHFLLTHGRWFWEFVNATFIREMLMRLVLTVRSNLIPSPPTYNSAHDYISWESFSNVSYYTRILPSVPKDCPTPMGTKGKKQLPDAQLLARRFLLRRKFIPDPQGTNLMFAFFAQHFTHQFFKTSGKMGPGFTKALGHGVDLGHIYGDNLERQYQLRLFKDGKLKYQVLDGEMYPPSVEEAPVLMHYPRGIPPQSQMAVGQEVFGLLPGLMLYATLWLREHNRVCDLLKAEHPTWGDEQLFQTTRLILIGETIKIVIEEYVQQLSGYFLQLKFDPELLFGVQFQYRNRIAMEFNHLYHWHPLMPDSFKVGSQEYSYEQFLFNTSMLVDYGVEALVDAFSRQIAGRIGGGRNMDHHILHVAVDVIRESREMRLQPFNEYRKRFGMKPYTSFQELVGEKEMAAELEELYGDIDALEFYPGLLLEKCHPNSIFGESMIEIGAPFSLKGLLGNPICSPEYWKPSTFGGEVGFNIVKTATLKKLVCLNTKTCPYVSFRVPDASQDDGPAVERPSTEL
structure (smiles),measurement,setting,value
"Cc1cc(Cc2ccc(=O)[nH]n2)n(C)c1C(=O)c1ccc(Cl)cc1 [Compound 16, 6-[1,4-dimethyl-5-(4chloro-benzoyl)-1H-pyrrol-2-ylmethyl]-2H-pyridazin-3-one]",IC50,COX II [1]; [9],0.2 µM
same,IC50,COX II [1]; [10],< 0.1 µM
same,IC50,COX II [1]; [11],2.8 µM
same,IC50,COX II [1]; [12],0.54 µM
same,IC50,"COX I [2]; 30 min incubation; a) 10 min activation, A23187 (calcium ionophore)",2.3 µM
same,IC50,"COX I [2]; 30 min incubation; b) 10 min activation, 20 μM AA",> 100 µM
same,IC50,COX I [3]; [9],5.2 µM
same,IC50,COX I [3]; [10],0.31 µM
same,IC50,COX I [3]; [11],4.6 µM
same,IC50,COX I [3]; [12],> 10 µM
same,type of inhibition of COX I,COX I [4],"weak, competitive, non-time dependent inhibition"
same,IC50,COX I [5],6 µM and 5 µM and 4 µM
same,IC50,COX II [6],4.7 µM and 4.56 µM
same,clinical chemistry,[7]; [13],No clinical chemistry abnormalities were detected
same,clinical signs,[7]; [13],no adverse clinical signs were noted
same,gross necropsy findings,[7]; [13],no drug-related gross necropsy findings
same,histopathological findings,[7]; [13],no histopathological findings
same,lesions in the stomach or intestines,[7]; [13],no lesions were noted in the stomach or intestines
same,intestinal lesions in toxicology range-finding study,[7]; up to 300 mg/kg/day for 14 days,no intestinal lesions were observed
same,dose proportionality,[8]; 1-300 mg/kg,exhibited dose proportionality over a broad range of doses
same,half-life,"[8]; in vivo, after intravenous dosing",2 to 3 h
same,bioavailability,"[8]; in vivo, rats and monkeys, oral",40 to 80%
